Test results from patent US20190374574A1, “COMPOSITION FOR THE TREATMENT OF GASTROINTESTINAL DISORDERS” (NEILOS S.R.L., priority 2017, published 2019).
Like-named read-outs stand apart in the source and are kept apart here.

How the values were obtained:
[1] = system: Male mice of the ICR strain; experiment: Diarrhoea induced by castor oil in mice; assay type: in vivo; conditions: oral; for effect on diarrhoea induced by castor oil (percentage of mice that exhibited diarrhoea at the second hour): 30 minutes before castor oil 0.2 ml/mouse, evaluated 2 hours after castor oil, vs control
Protocol: In the following tests, the effect of two formulations and their individual constituents was evaluated in order to determine a possible synergistic effect among the individual components on diarrhoea induced by castor oil.
Male mice of the ICR strain supplied by the company Charles River and weighing 20-25 g were used. The animals were housed in temperature-controlled rooms (temperature of 23±2° C., humidity of 50±2%, 12-hour light-dark cycles) and had free access to water and food, consisting of a standard diet supplied by the company Mucedola Mangimi (Settimo Milanese, Italy). All experiments were performed in observance of Legislative Decree no. 116 of 27 Jan. 1992 and according to the guidelines of the Council of the European Union (86/609/EEC and 2010/63/EU).
The technique of Borrelli et al. (Borrelli F, Capasso F, Capasso R, Ascione V, Aviello G, Longo R, Izzo A A (2006). “Effect of Boswellia serrata on intestinal motility in rodents: inhibition of diarrhoea without constipation” Br J Pharmacol 148:553-560) was used. In practical terms, the mice were fasted for a period of 12 hours and then isolated in individual cages provided with a mesh on the bottom, set 5 cm above a sheet of absorbent paper. This enabled inspection of the excreted faeces. 30 minutes after administration of the samples to be tested, the animals received 0.2 ml of castor oil by means of a gastric probe. The diarrhoea was evaluated 15 minutes after the administration of the cathartic agent and every 15 minutes until the second hour. […]
Two formulations (according to the invention) were evaluated, consisting, respectively, of activated charcoal, Carum carvi, papain, α-galactosidase and β-galactosidase (total formulation) and activated charcoal, Carum carvi and papain (partial formulation). […]
The results are expressed as the mean±standard error of the mean (S.E.M.). The difference between two means was evaluated by means of Student's t-test. […]

[2] = system: patients with lactose intolerance; conditions: cited from earlier work; for reduction in the hydrogen concentration compared to the placebo: p<0.001; for hydrogen concentration in expired air: placebo 51.46±16.12

Row | Molecule | effect on diarrhoea induced by castor oil (percentage of mice that exhibited diarrhoea at the second hour) [1] | reduction in the hydrogen concentration compared to the placebo ([2]; group A: 3000 U of lactase added to milk 10 hours prior to administration) | hydrogen concentration in expired air ([2]; group A: 3000 U of lactase added to milk 10 hours prior) | reduction in the hydrogen concentration compared to the placebo ([2]; group B: 6000 U of lactase added to milk 5 minutes prior to ingestion) | hydrogen concentration in expired air ([2]; group B: 6000 U of lactase added to milk 5 minutes prior) | cumulative quantity of expired hydrogen vs group C (placebo) ([2]; groups A and B) | dose at which the reduction of castor oil diarrhoea was significant ([1]; 2 hours after castor oil)
1 | β-galactosidase | not capable of modifying the cathartic effect of the castor oil | 77% | 12.07±7.8 p.p.m. | 73% | 13.97±7.99 p.p.m. | significantly lower | 
2 | Papain: Papain (CAS N. 9001-73-4), cysteine-protease from Carica papaya, activity greater than or equal to 2.5 FIP UI/mg (protein, UniProt P00784 134-345, looked up) Papain: IPEYVDWRQKGAVTPVKNQGSCGSCWAFSAVVTIEGIIKIRTGNLNEYSEQELLDCDRRSYGCNGGYPWSALQLVAQYGIHYRNTYPYEGVQRYCRSREKGPYAAKTDGVRQVQPYNEGALLYSIANQPVSVVLEAAGKDFQLYRGGIFVGPCGNKVDHAVAAVGYGPNYILIKNSWGTGWGENGYIRIKRGTGNSYGVCGLYTSSFYPVKN | significantly reduced diarrhoea |  |  |  |  |  | 30 mg/kg
